Experimental data reported in the supplement of paper PMC10307832.

What was measured:
Assay in all cases: relative viability (nuclei count vs DMSO), 5 days (fraction); higher = more cells survive
Bemcentinib + Trametinib = compound: Nc1nc(Nc2ccc3c(c2)CC[C@@H](N2CCCC2)CC3)nn1-c1cc2c(nn1)-c1ccccc1CCC2 [Bemcentinib] + CC(=O)Nc1cccc(-n2c(=O)n(C3CC3)c(=O)c3c(Nc4ccc(I)cc4F)n(C)c(=O)c(C)c32)c1 [Trametinib] (partner 0.02 µM)
Outline: (§1)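 Lung cancer cell lines in 1536-well plates got either a single drug or a fixed anchor-drug dose together with five library-drug doses (not always all listed) in √10 steps, by pin tool, on the day after seeding. Nuclei were counted after 5 days, and relative viability is the treated-to-vehicle ratio of nuclei counts. Values are medians of duplicate plates.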

[1] = compound: CC1=CC=C(C=C1)C(=O)CN2C3=C(CCCC3)SC2=N [Pifithrin_alpha] + O=C(c1cc(Cc2n[nH]c(=O)c3ccccc23)ccc1F)N1CCN(C(=O)C2CC2)CC1 [Olaparib] (partner 8 µM)
Outline: as §1

Axitinib + Pictilisib = compound: CNC(=O)c1ccccc1Sc1ccc2c(/C=C/c3ccccn3)n[nH]c2c1 [Axitinib] + CS(=O)(=O)N1CCN(Cc2cc3nc(-c4cccc5[nH]ncc45)nc(N4CCOCC4)c3s2)CC1 [Pictilisib] (partner 1 µM)
Outline: as §1

Axitinib + Pemetrexed = compound: CNC(=O)c1ccccc1Sc1ccc2c(/C=C/c3ccccn3)n[nH]c2c1 [Axitinib] + Nc1nc2[nH]cc(CCc3ccc(C(=O)N[C@@H](CCC(=O)O)C(=O)O)cc3)c2c(=O)[nH]1 [Pemetrexed] (partner 0.2 µM)
Outline: as §1

Row | Cell Line | relative viability (Bemcentinib + Trametinib; first compound 0.04 µM) | relative viability (Bemcentinib + Trametinib; first compound 0.1265 µM) | relative viability (Bemcentinib + Trametinib; first compound 0.4 µM) | relative viability (Bemcentinib + Trametinib; first compound 1.265 µM) | relative viability (Bemcentinib + Trametinib; first compound 4 µM) | relative viability ([1]; first compound 1 µM) | relative viability ([1]; first compound 3.162 µM) | relative viability ([1]; first compound 10 µM) | relative viability ([1]; first compound 31.62 µM) | relative viability ([1]; first compound 100 µM) | relative viability (Axitinib + Pictilisib; first compound 0.005 µM) | relative viability (Axitinib + Pictilisib; first compound 0.01581 µM) | relative viability (Axitinib + Pictilisib; first compound 0.05 µM) | relative viability (Axitinib + Pictilisib; first compound 0.1581 µM) | relative viability (Axitinib + Pictilisib; first compound 0.5 µM) | relative viability (Axitinib + Pemetrexed; first compound 0.005 µM) | relative viability (Axitinib + Pemetrexed; first compound 0.01581 µM) | relative viability (Axitinib + Pemetrexed; first compound 0.05 µM) | relative viability (Axitinib + Pemetrexed; first compound 0.1581 µM) | relative viability (Axitinib + Pemetrexed; first compound 0.5 µM)
1 | NCI-H2085 | 0.538 | 0.667 | 0.526 | 0.444 | 0.516 | 0.807 | 0.778 | 0.796 | 0.523 | 0.685 | 0.457 | 0.467 | 0.441 | 0.507 | 0.373 | 0.903 | 0.876 | 0.905 | 0.806 | 0.808
2 | HCC-366 | 0.368 | 0.428 | 0.407 | 0.409 | 0.419 | 0.344 | 0.238 | 0.299 | – | 0.209 | 0.116 | 0.171 | 0.146 | 0.153 | 0.101 | 0.151 | 0.168 | 0.182 | 0.208 | 0.224
3 | NCI-H322M | 0.477 | 0.534 | 0.496 | 0.504 | 0.51 | 0.74 | 0.715 | 0.723 | 0.468 | 0.559 | 0.571 | 0.496 | 0.474 | 0.472 | 0.505 | 0.586 | 0.691 | 0.679 | 0.628 | 0.627
4 | 201T | 0.731 | 0.778 | 0.744 | 0.743 | 0.734 | 0.843 | 0.891 | 0.601 | 0.564 | 0.619 | 0.671 | 0.69 | 0.662 | 0.675 | 0.675 | 0.379 | 0.3 | 0.294 | 0.302 | 0.332
5 | SK-LU-1 | 0.463 | 0.514 | 0.493 | 0.547 | 0.531 | 0.418 | 0.486 | 0.453 | 0.354 | 0.457 | 0.553 | 0.569 | 0.558 | 0.567 | 0.659 | 1.01 | 1 | 1.09 | 1.03 | 1.13
6 | ChaGo-K-1 | 0.911 | 0.945 | 0.939 | 0.877 | 0.902 | 0.404 | 0.424 | 0.336 | 0.231 | 0.371 | 0.725 | 0.562 | 0.878 | 0.643 | 0.541 | 0.27 | 0.262 | 0.252 | 0.267 | 0.274
7 | NCI-H1755 | 0.765 | 0.817 | 0.818 | 0.768 | 0.813 | 0.789 | 0.747 | 0.734 | 0.544 | 0.73 | 0.482 | 0.418 | 0.55 | 0.4 | 0.454 | 0.438 | 0.448 | 0.403 | 0.509 | 0.403
8 | NCI-H1666 | 0.972 | 0.954 | 0.926 | 1.01 | 0.925 | 0.72 | 0.673 | 0.657 | 0.641 | 0.648 | 0.414 | 0.459 | 0.433 | 0.512 | 0.584 | 0.865 | 0.972 | 0.899 | 0.958 | 0.873
9 | PC-3 [JPC-3] | 0.664 | 0.775 | 0.725 | 0.632 | 0.636 | – | 1.11 | – | 0.564 | 0.764 | 0.729 | – | 0.672 | 0.715 | 0.853 | 0.963 | – | 1.32 | 1.06 | 1.16
10 | NCI-H358 | 0.12 | 0.125 | 0.118 | 0.134 | 0.145 | 0.628 | 0.559 | 0.459 | 0.252 | 0.555 | 0.369 | 0.309 | 0.33 | 0.336 | 0.369 | 0.166 | 0.154 | 0.182 | 0.173 | 0.181
11 | NCI-H1975 | 0.282 | 0.399 | 0.365 | 0.36 | 0.344 | 0.676 | 0.437 | 0.374 | 0.467 | 0.354 | 0.334 | 0.311 | 0.365 | 0.317 | 0.377 | 0.294 | 0.293 | 0.272 | 0.269 | 0.279
12 | LC-2-ad | 0.946 | 0.963 | 0.952 | 0.98 | 0.962 | 0.756 | 0.739 | 0.683 | 0.444 | 0.555 | 0.505 | 0.516 | 0.458 | 0.54 | 0.469 | 0.261 | 0.257 | 0.268 | 0.271 | 0.277
13 | NCI-H1993 | 0.71 | 0.394 | 0.467 | 0.493 | 0.482 | 1.06 | 1.11 | 0.779 | 0.697 | 0.866 | 0.763 | 0.952 | 0.805 | 0.772 | 0.781 | 0.606 | 0.601 | 0.604 | 0.628 | 0.541
14 | CAL-12T | 0.347 | 0.321 | 0.302 | 0.339 | 0.372 | 0.706 | 0.631 | 0.535 | 0.46 | 0.574 | 0.385 | 0.393 | 0.513 | 0.492 | 0.396 | 1.43 | 1.35 | 1.28 | 1.22 | 1.24
15 | NCI-H1650 | 0.483 | 0.684 | 0.617 | 0.594 | 0.459 | 0.596 | 1.09 | 0.373 | 0.298 | 0.408 | 0.624 | 0.36 | 0.644 | 0.529 | 0.585 | 0.415 | 0.352 | 0.361 | 0.436 | 0.408
16 | H3255 | – | 0.749 | 0.696 | 0.674 | 0.706 | 0.603 | 0.562 | 0.53 | 0.44 | 0.485 | 0.485 | 0.288 | 0.432 | 0.492 | 0.435 | 0.531 | 0.527 | 0.568 | 0.568 | 0.578
